According to ChEMBL document CHEMBL4428049, “Design and synthesis of aminothiazole modulators of the gamma-secretase enzyme” (Bioorg Med Chem Lett, 2016):
In brackets after ≈: the same amount, converted by molar mass.

How the values were obtained:
[1] = Ratio of drug level in brain to plasma in CD1 mouse at 5 mg/kg administered via oral gavage measured after 4 hrs by HPLC/MS/MS analysis; assay type: ADME, organism-based; settings: read-out: BPR
[2] = AUC (infinity) in CD1 mouse at 5 mg/kg administered via oral gavage by HPLC/MS/MS analysis; assay type: ADME, organism-based; set-up: dose 5 mg/kg, time infinity, route oral; settings: in vivo
[3] = Ratio of drug level in brain to plasma in CD1 mouse at 5 mg/kg administered via oral gavage by HPLC/MS/MS analysis; assay type: ADME, organism-based; settings: read-out: BPR
[4] = AUC (infinity) in CD1 mouse at 1 mg/kg, iv administered as single dose by HPLC/MS/MS analysis; assay type: ADME, organism-based; set-up: dose 1 mg/kg, route intravenous, time infinity; settings: in vivo
[5] = Volume of distribution at steady state in CD1 mouse at 1 mg/kg, iv administered as single dose by HPLC/MS/MS analysis; assay type: ADME, organism-based; settings: in vivo, read-out: Vdss
[6] = Half life in CD1 mouse at 1 mg/kg, iv administered as single dose by HPLC/MS/MS analysis; assay type: ADME, organism-based; settings: in vivo
[7] = Cmax in CD1 mouse at 5 mg/kg administered via oral gavage by HPLC/MS/MS analysis; assay type: ADME, organism-based; set-up: dose 5 mg/kg, route oral; settings: in vivo
Cytochrome P450 3A4 = Cytochrome P450 3A4 (Homo sapiens, UniProt P08684); assay: Inhibition of recombinant CYP3A4 (unknown origin) by fluorescence-based assay; assay type: ADME
Sequence of Cytochrome P450 3A4 (P08684 whole entry): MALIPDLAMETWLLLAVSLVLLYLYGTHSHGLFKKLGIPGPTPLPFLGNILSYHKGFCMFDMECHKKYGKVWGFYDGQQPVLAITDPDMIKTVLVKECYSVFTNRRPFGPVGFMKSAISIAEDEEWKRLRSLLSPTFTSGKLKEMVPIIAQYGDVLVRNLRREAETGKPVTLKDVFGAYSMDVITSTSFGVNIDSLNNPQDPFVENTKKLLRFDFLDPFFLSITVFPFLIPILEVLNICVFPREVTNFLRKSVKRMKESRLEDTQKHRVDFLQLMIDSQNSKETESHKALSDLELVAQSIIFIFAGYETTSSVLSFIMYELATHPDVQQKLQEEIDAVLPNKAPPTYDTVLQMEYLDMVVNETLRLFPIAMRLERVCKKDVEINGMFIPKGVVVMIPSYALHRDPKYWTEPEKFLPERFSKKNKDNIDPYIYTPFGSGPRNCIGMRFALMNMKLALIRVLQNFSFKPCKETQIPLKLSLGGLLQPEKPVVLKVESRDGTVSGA

[8] = Kinetic solubility in PBS buffer at pH 7.4 by UV/vis absorbance analysis; assay type: physicochemical; settings: read-out: Kinetic_solubility
[9] = Clearance in CD1 mouse at 1 mg/kg, iv administered as single dose by HPLC/MS/MS analysis; assay type: ADME, organism-based; settings: in vivo
Cytochrome P450 2C19 = Cytochrome P450 2C19 (Homo sapiens, UniProt P33261); assay: Inhibition of recombinant CYP2C19 (unknown origin) by fluorescence-based assay; assay type: ADME
Sequence of Cytochrome P450 2C19 (P33261 whole entry): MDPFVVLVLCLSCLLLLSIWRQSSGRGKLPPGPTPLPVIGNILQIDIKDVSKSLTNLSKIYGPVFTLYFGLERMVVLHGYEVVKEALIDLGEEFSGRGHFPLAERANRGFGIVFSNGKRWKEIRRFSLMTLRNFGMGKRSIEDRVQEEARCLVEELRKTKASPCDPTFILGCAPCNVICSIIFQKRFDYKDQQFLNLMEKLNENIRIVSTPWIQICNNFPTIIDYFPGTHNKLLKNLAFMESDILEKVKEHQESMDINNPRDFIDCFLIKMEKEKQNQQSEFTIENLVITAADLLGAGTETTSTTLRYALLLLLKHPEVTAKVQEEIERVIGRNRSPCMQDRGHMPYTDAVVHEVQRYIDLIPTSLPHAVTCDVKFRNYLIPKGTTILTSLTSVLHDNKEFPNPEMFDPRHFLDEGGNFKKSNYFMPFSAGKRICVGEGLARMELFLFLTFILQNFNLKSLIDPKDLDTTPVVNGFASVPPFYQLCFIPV

[10] = Cmax in CD1 mouse at 1 mg/kg, iv administered as single dose by HPLC/MS/MS analysis; assay type: ADME, organism-based; set-up: dose 1 mg/kg, route intravenous; settings: in vivo
[11] = Stability in human liver microsomes assessed as compound remaining at 1 uM incubated for 30 mins; assay type: ADME, Microsome; settings: read-out: Stability
Cytochrome P450 2D6 = Cytochrome P450 2D6 (Homo sapiens, UniProt P10635); assay: Inhibition of recombinant CYP2D6 (unknown origin) by fluorescence-based assay; assay type: ADME
Sequence of Cytochrome P450 2D6 (P10635 whole entry): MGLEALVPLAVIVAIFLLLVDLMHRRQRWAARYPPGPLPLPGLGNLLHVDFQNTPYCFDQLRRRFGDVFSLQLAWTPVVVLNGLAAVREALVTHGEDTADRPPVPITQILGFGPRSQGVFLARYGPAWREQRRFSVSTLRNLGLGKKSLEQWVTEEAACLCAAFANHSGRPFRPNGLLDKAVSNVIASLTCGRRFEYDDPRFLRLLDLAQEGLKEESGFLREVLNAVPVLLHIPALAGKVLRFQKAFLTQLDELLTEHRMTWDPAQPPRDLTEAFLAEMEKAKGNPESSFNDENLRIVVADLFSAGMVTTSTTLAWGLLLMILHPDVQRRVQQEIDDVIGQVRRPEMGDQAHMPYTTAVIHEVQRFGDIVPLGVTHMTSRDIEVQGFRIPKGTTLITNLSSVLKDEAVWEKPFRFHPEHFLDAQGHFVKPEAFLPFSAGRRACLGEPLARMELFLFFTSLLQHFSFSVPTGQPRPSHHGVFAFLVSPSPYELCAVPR

[12] = Half life in CD1 mouse at 5 mg/kg administered via oral gavage by HPLC/MS/MS analysis; assay type: ADME, organism-based; settings: in vivo
[13] = Ratio of drug level in brain to plasma in CD1 mouse at 1 mg/kg, iv administered as single dose measured after 1 hr by HPLC/MS/MS analysis; assay type: ADME, organism-based; settings: read-out: BPR
Cytochrome P450 1A2 = target: T1, Cytochrome P450 1A2 (Homo sapiens, UniProt P05177); assay: Inhibition of recombinant CYP1A2 (unknown origin) by fluorescence-based assay; assay type: ADME
T1 sequence (P05177 whole entry): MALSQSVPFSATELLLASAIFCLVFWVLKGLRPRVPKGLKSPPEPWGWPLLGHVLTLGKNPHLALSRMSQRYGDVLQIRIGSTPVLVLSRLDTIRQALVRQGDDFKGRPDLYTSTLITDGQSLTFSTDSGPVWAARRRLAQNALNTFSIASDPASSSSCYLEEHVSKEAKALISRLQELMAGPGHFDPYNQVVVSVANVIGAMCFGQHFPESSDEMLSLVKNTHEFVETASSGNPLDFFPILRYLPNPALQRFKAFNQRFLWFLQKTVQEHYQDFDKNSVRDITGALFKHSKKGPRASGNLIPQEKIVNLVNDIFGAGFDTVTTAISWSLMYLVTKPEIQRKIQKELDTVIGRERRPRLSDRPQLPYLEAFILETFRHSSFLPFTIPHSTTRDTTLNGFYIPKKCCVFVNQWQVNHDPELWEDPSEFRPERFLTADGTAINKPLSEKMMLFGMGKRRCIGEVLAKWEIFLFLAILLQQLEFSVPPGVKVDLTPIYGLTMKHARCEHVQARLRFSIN

[14] = Tmax in CD1 mouse at 5 mg/kg administered via oral gavage by HPLC/MS/MS analysis; assay type: ADME, organism-based; settings: in vivo
[15] = AUC (last) in CD1 mouse at 1 mg/kg, iv administered as single dose by HPLC/MS/MS analysis; assay type: ADME, organism-based; set-up: dose 1 mg/kg, time 0 - last, route intravenous; settings: in vivo
[16] = Protein binding in plasma (unknown origin); assay type: ADME, cell-free; settings: read-out: PPB (converted)
[17] = Stability in mouse liver microsomes assessed as compound remaining at 1 uM incubated for 30 mins; assay type: ADME, Microsome; settings: read-out: Stability
[18] = AUC (last) in CD1 mouse at 5 mg/kg administered via oral gavage by HPLC/MS/MS analysis; assay type: ADME, organism-based; set-up: dose 5 mg/kg, time 0 - last, route oral; settings: in vivo
[19] = Stability in rat liver microsomes assessed as compound remaining at 1 uM incubated for 30 mins; assay type: ADME, Microsome; settings: read-out: Stability
Gamma-secretase = assay: Modulation of gamma-secretase in human SH-SY5Y cells overexpressing wild-type human APP751 assessed as inhibition of Abeta42 level after 24 hrs by ELISA; assay type: cell-based
[20] = Ratio of drug level in brain to plasma in CD1 mouse at 5 mg/kg administered via oral gavage measured after 8 hrs by HPLC/MS/MS analysis; assay type: ADME, organism-based; settings: read-out: BPR
[21] = Apparent permeability in MDCK cells expressing MDR1; assay type: ADME, cell-based, Canis lupus familiaris; settings: dog
[22] = target: Voltage-gated inwardly rectifying potassium channel KCNH2 (Homo sapiens, UniProt Q12809); assay: Inhibition of human ERG channel expressed in HEK293 cells by patch-clamp assay; assay type: cell-based
Sequence of Voltage-gated inwardly rectifying potassium channel KCNH2 (Q12809 whole entry): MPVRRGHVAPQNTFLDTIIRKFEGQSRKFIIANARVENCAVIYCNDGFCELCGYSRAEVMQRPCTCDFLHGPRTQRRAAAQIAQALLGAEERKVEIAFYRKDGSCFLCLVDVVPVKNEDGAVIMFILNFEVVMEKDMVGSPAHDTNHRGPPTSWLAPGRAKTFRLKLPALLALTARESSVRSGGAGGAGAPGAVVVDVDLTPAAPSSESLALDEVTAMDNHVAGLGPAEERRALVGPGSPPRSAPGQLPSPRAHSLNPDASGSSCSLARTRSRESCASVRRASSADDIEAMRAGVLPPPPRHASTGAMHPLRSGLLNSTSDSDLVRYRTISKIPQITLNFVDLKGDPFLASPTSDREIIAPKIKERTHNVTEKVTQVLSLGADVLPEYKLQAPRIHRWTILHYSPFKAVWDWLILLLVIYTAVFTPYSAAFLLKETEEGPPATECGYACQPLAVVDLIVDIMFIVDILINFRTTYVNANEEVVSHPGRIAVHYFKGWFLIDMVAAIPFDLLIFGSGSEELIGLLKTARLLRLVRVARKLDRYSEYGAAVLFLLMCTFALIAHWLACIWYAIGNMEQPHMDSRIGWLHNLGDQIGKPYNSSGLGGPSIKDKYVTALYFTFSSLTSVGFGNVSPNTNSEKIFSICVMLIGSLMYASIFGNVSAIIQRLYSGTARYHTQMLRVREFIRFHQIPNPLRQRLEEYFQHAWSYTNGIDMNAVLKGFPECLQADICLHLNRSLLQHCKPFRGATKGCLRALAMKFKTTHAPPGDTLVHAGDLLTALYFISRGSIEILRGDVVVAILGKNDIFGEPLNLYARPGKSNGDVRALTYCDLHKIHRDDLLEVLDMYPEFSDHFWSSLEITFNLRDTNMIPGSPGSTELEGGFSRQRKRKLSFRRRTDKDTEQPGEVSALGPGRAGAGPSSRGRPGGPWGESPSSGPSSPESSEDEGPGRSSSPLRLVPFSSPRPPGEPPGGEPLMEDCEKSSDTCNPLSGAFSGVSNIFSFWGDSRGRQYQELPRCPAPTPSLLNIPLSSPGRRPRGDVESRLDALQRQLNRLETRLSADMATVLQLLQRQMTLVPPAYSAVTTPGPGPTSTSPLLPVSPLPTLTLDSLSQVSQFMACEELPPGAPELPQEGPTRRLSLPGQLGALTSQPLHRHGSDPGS

[23] = Lipophilicity, log D of the compound; assay type: physicochemical; settings: octanol/water
Cytochrome P450 2C9 = Cytochrome P450 2C9 (Homo sapiens, UniProt P11712); assay: Inhibition of recombinant CYP2C9 (unknown origin) by fluorescence-based assay; assay type: ADME
Sequence of Cytochrome P450 2C9 (P11712 whole entry): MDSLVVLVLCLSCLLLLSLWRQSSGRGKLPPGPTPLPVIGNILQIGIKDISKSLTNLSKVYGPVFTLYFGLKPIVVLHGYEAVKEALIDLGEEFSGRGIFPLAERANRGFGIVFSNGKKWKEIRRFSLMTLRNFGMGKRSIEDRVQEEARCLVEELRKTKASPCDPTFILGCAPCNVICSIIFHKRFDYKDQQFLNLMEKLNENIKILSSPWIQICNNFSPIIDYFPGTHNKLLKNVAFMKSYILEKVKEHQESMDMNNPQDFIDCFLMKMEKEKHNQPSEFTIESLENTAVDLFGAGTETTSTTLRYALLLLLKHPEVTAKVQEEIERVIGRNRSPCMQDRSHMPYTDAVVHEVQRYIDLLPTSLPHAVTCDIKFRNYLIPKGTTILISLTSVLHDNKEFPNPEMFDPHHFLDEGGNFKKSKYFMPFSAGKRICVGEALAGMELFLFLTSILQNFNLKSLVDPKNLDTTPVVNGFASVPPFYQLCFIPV

[24] = Efflux ratio of permeability from basolateral to apical over apical to basolateral side of MDCK cells expressing MDR1; assay type: ADME, cell-based, Canis lupus familiaris; settings: dog
[25] = Clearance in CD1 mouse at 1 mg/kg administered intravenously by HPLC/MS/MS analysis relative to hepatic blood flow; settings: in vivo, iv
[26] = Tmax in CD1 mouse at 1 mg/kg, iv administered as single dose by HPLC/MS/MS analysis; assay type: ADME, organism-based; settings: in vivo

CCn1nc(C(C)(C)C)cc1Nc1nc(-c2ccc(-n3cnc(C)c3)c(F)c2)cs1
Kp at 4 h [1]: 0.53
AUC(0-inf) [2]: 5720 ng·h/mL
Kp [3]: 0.5
AUC(0-inf) [4]: 498 ng·h/mL
Vd [5]: 7.15 L/kg
half-life [6]: 2.4 h
Cmax [7]: 1000 ng/mL
IC50 (Cytochrome P450 3A4): 16 µM
solubility kinetic [8]: 4.7 µM (≈ 2 µg/mL)
clearance [9]: 33.5 mL/min/kg
IC50 (Cytochrome P450 2C19): 82 µM
Cmax [10]: 161 ng/mL
remaining at 0.5 h, 1 µM [11]: 51%
IC50 (Cytochrome P450 2D6): > 100 µM
half-life [12]: 6 h
Kp at 1 h [13]: 0.64
IC50 (Cytochrome P450 1A2): > 100 µM
Tmax [14]: 1 h
AUC(0-t) [15]: 335 ng·h/mL
fraction unbound [16]: 0.006
remaining at 0.5 h, 1 µM [17]: 95%
AUC(0-t) [18]: 5390 ng·h/mL
remaining at 0.5 h, 1 µM [19]: 64%
IC50 (Gamma-secretase): 0.063 µM
Kp at 8 h [20]: 0.59
Papp [21]: 0.97 ×10⁻⁶ cm/s
IC50 [22]: > 30 µM
logD [23]: 3.64
IC50 (Cytochrome P450 2C9): > 100 µM
efflux ratio [24]: 1.6
CL [25]: 40%
Tmax [26]: 4.98 min
